Experimental findings from US20250313539A1, “Alpha, Beta-UNSATURATED AMIDE COMPOUND, AND PREPARATION METHOD THEREFOR, AND PHARMACEUTICAL COMPOSITION AND USE THEREOF” (SHANGHAI INSTITUTE OF MATERIA MEDICA, CHINESE ACADEMY OF …, priority 2022, published 2025) are described below.

The subject of series [1] is cerebral blood flow in mice. The series can be described thus: laser speckle test blood flow model, improvement of cerebral blood flow in mice. In kind it is in vivo. The following applies: injected intraperitoneally, within 60 minutes after administration vs before; for change in vivo at 20 mg/kg: dose of 20 mg/kg. The source says:
We used a laser speckle test blood flow model to test the activity of compounds in improving cerebral blood flow in mice. The principle is to measure the intensity changes of flowing blood through laser speckle technology, reflecting real-time cerebral blood flow; By comparing the changes in blood flow before and after administration in mice, the effect of compounds on improving blood flow can be detected.
The experimental mice were anesthetized for 30 seconds and fixed on a rack. After waiting for 2 minutes for the baseline light intensity data to stabilize, the brain blood flow light intensity data of the mice were recorded for 10 minutes without administration. Subsequently, the test compound was injected intraperitoneally and the cerebral blood flow and light intensity data of mice were recorded within 60 minutes after administration. Comparing the changes in light intensity before and after administration can reveal the degree of changes in cerebral blood flow in mice.
Through the laser speckle model mentioned above, we conducted preliminary tests on the activity of the compound in improving cerebral blood flow in mice. In this experiment, ferulic acid (FA) was used as a positive control. Multiple compounds have shown significant improvement effects on cerebral blood flow in this model. At a dose of 5 mg/kg, compound 9 can increase cerebral blood flow in mice by about 10%, and compound 16 can increase it by about 20%. At a dose of 20 mg/kg, compounds 30 and 59 increased mouse cerebral blood flow by about 10%, compounds 5, 6, 26, 28, 29, 35, 43, and 58 all increased mouse cerebral blood flow by about 20%, compounds 16, 57, and 86 increased mouse cerebral blood flow by about 30%, compounds 27, 84, and 104 increased it by about 40%, and compound 83 increased mouse cerebral blood flow by 50% to 60%. Overall, the patented compound has good development prospects.

The nature of series [2]: drug concentration in brain tissue, plasma and CSF after oral administration in mice. In kind it is in vivo. An excerpt: Compound 27 has good brain tissue drug distribution after oral administration in mice, with a B/P of approximately 0.7.
Series [3] in a line: pharmacokinetic parameters in mice (plasma, LC-MS/MS). Type of series: in vivo, Male ICR (CD-1) mice. The note with it: male, ICR (CD-1), mouse; for MRT inf: read-out: MRT0-∞; for bioavailability: read-out: F (oral bioavailability). On the procedure: Male ICR (CD-1) mice were divided into two groups, with three mice in each group. […] intravenously injected with 5 mg/kg of the test substance, blood was collected before administration, and 0.25 h, 0.5 h, 1 h, 2 h, 4 h, 8 h, and 24 hours after administration, respectively, and centrifuged immediately to obtain plasma, and the drug concentration in the plasma was determined using liquid chromatography tandem mass spectrometry.

Setting [4] is: Mus musculus, ip, 1 h, read-out: increase of cerebral blood flow in mice.
Setting [5] is: PO 20 mg/kg, 15 min, individual animals 13-15.
The mark [6] stands for this setting: PO 20 mg/kg, 30 min, individual animals 16-18.

Several values for one entry are separate records, joined by “and”; a condition that tells them apart may be missing. Equal entries are not always repeated. Where two headings read alike, the source gives them in different places.

On to `COc1ccc(/C=C/C(=O)N2CCOC2=O)cc1` [Example 6, (E)-3-(3-(4-methoxyphenyl)acryloyl)oxazolidin-2-one], for which the change in vivo at 20 mg/kg in series [1] (setting [4]) was ~20%.
Regarding `[2H]C1([2H])OC(=O)N(C(=O)/C=C/c2ccccc2OC(F)(F)F)[C@H]1c1ccccc1` [Example 84, (S, E)-4-phenyl-3-(3-(2-trifluoromethoxyphenyl)acryloyl) oxazolidin-2-one-5,5-d2], the change in vivo at 20 mg/kg in series [1] (setting [4]) was ~40%.
As usually defined, the AUC(0-inf) is the area under the concentration-time curve extrapolated to infinity. High values mean high exposure, low ones low exposure. As a reminder, the AUC(0-t) is the area under the concentration-time curve up to a stated or last time point. Read a low AUC(0-t) as low exposure. One may read the clearance as the volume of plasma or blood freed of the substance per unit of time. In general, half-life refers to the time in which the quantity being followed falls by half. For orientation: Cmax means the maximum level reached in the sampled fluid or tissue. The term Tmax denotes the time from dosing to the highest level. In general, bioavailability refers to dose-corrected exposure relative to a reference, in per cent. Turning to `O=C(/C=C/c1ccccc1C(F)(F)F)N1C(=O)OC[C@@H]1c1ccccc1` [Example 27, (S, E)-3-(3-(2-trifluoromethylphenyl)acryloyl)-4-phenyloxazolidin-2-one], the concentration at 15 min amounted to 50.9 ng/g in series [2] (ICR (CD-1), mouse, brain, po, 20 mg/kg, PO 20 mg/kg, 15 min, mean, read-out: Brain); 70.4 ng/mL in series [2] (ICR (CD-1), mouse, heart plasma, po, 20 mg/kg, PO 20 mg/kg, 15 min, mean, read-out: Heart Plasma); 3.8 ng/mL in series [2] (ICR (CD-1), mouse, po, 20 mg/kg, PO 20 mg/kg, 15 min, mean, read-out: CSF); 320 ng/mL in series [2] (ICR (CD-1), mouse, portal vein plasma, po, 20 mg/kg, PO 20 mg/kg, 15 min, individual animals 13-15, read-out: Portal Vein Plasma); 371 ng/mL in series [2] (ICR (CD-1), mouse, portal vein plasma, po, 20 mg/kg, PO 20 mg/kg, 15 min, mean, read-out: Portal Vein Plasma). Further, the concentration at 30 min amounted to 43.7 ng/g in series [2] (ICR (CD-1), mouse, brain, po, 20 mg/kg, PO 20 mg/kg, 30 min, mean, read-out: Brain); 61.9 ng/mL in series [2] (ICR (CD-1), mouse, heart plasma, po, 20 mg/kg, PO 20 mg/kg, 30 min, mean, read-out: Heart Plasma); 3.2 ng/mL in series [2] (ICR (CD-1), mouse, po, 20 mg/kg, PO 20 mg/kg, 30 min, mean, read-out: CSF); 373 ng/mL in series [2] (ICR (CD-1), mouse, portal vein plasma, po, 20 mg/kg, PO 20 mg/kg, 30 min, mean, read-out: Portal Vein Plasma). Besides, the Kp at 15 min is 0.7 in series [2] (ICR (CD-1), mouse, brain/heart plasma, po, 20 mg/kg, PO 20 mg/kg, 15 min, individual animals 13-15, read-out: Brain/H. Plasma); 0.7 in series [2] (ICR (CD-1), mouse, brain/heart plasma, po, 20 mg/kg, PO 20 mg/kg, 15 min, mean, read-out: Brain/H. Plasma); ~0.7 in series [2] (ICR (CD-1), mouse, brain/plasma, po, 20 mg/kg, after oral administration in mice, read-out: B/P (brain tissue drug distribution)). For the same compound, the Kp at 30 min in series [2] (ICR (CD-1), mouse, brain/heart plasma, po, 20 mg/kg, PO 20 mg/kg, 30 min, mean, read-out: Brain/H. Plasma) is 0.7. The Brain is 29.4 ng/g and 75.4 ng/g and 47.9 ng/g in series [2] (setting [5]); 19.4 ng/g and 38.8 ng/g and 44.3 ng/g in series [2] (setting [6]). For the same compound, the “Brain/H. Plasma” value in series [2] (setting [5]) was 0.65 and 0.91; in series [2] (setting [6]), 0.56 and 1.37 and 0.49. In addition, the CSF was 1.63 ng/mL and 8.37 ng/mL and 1.40 ng/mL in series [2] (setting [5]); 0.670 ng/mL and 0.770 ng/mL and 5.94 ng/mL in series [2] (setting [6]). Moreover, the “Heart Plasma” value in series [2] (setting [5]) was 41.9 ng/mL and 117 ng/mL and 52.7 ng/mL; in series [2] (setting [6]), 34.2 ng/mL and 28.2 ng/mL and 89.5 ng/mL. Besides, the “Portal Vein Plasma” value in series [2] (setting [5]) is 375 ng/mL and 418 ng/mL; in series [2] (setting [6]), 252 ng/mL and 171 ng/mL and 704 ng/mL. Besides, the AUC(0-inf) in series [3] (iv-5 mg/kg) was 805 ng·h/mL; in series [3] (po-20 mg/kg), 650 ng·h/mL. Moreover, the AUC(0-t) came to 790 ng·h/mL in series [3] (iv-5 mg/kg) and 465 ng·h/mL in series [3] (po-20 mg/kg). In series [3] (iv-5 mg/kg), the clearance amounted to 104 mL/min/kg. Besides, the half-life was 2.08 h in series [3] (iv-5 mg/kg) and 4.01 h in series [3] (po-20 mg/kg). Moreover, the MRT inf worked out at 1.04 h in series [3] (iv-5 mg/kg) and 6.12 h in series [3] (po-20 mg/kg). In series [3] (po-20 mg/kg), the Cmax was 104 ng/mL. Further, the Tmax in series [3] (po-20 mg/kg) worked out at 1 h. For the same compound, the bioavailability in series [3] (po-20 mg/kg vs iv-5 mg/kg) stood at 14.7%. Moreover, the change in vivo at 20 mg/kg in series [1] (setting [4]) is ~40%.
On to `O=C(/C=C/c1ccccc1C(F)(F)F)N1C(=O)OC[C@@H]1Cc1ccccc1` [Example 58, (S, E)-4-benzyl-3-(3-(2-trifluoromethylphenyl)acryloyl)oxazolidin-2-one], for which, in series [1] (setting [4]), the change in vivo at 20 mg/kg is ~20%.
On the same count and under the same terms, the value for `O=C(/C=C/c1ccccc1C(F)(F)F)N1C(=O)OC[C@H]1Cc1ccccc1` [Example 59, (R, E)-4-benzyl-3-(3-(2-trifluoromethylphenyl)acryloyl)oxazolidin-2-one] was ~10%.
In the case of `O=C(/C=C/c1cccc(Oc2ccccc2)c1)N1CCOC1=O` [Example 16, (E)-3-(3-(3-phenoxyphenyl)acryloyl)oxazolidin-2-one], the change in vivo at 5 mg/kg in series [1] (Mus musculus, ip, 1 h, dose of 5 mg/kg, read-out: increase of cerebral blood flow in mice) was ~20%. Moreover, in series [1] (setting [4]), the change in vivo at 20 mg/kg was ~30%.
Regarding `[2H]C1([2H])OC(=O)N(C(=O)/C=C/c2cccc(-c3ccccc3)c2)[C@H]1c1ccccc1` [Example 86, (S, E)-3-(3-([1,1′-biphenyl]-3-yl)acryloyl)-4-phenyloxazolidin-2-one-5,5-d2], the change in vivo at 20 mg/kg in series [1] (setting [4]) is ~30%.
Regarding `COc1cccc(/C=C/C(=O)N2CCOC2=O)c1` [Example 5, (E)-3-(3-(3-methoxyphenyl)acryloyl)oxazolidin-2-one], the change in vivo at 20 mg/kg in series [1] (setting [4]) is ~20%.
In series [3] (iv-5 mg/kg), `[2H]C1([2H])OC(=O)N(C(=O)/C=C/c2ccccc2C(F)(F)F)[C@H]1c1ccccc1` [Example 83, (S, E)-4-phenyl-3-(3-(2-trifluoromethylphenyl)acryloyl)oxazolidin-2-one-5,5-d2] gave an AUC(0-inf) of 2200 ng·h/mL, an AUC(0-t) of 2170 ng·h/mL, a clearance of 37.8 mL/min/kg and a half-life of 1.56 h. The MRT inf in series [3] (iv-5 mg/kg) amounted to 1.21 h. Further, in series [3] (po-10 mg/kg), the AUC(0-inf) worked out at 767 ng·h/mL, the AUC(0-t) stood at 757 ng·h/mL, the highest level (Cmax) was 116 ng/mL and the Tmax worked out at 1 h. For the same compound, in series [3] (po-10 mg/kg), the half-life is 4.08 h and the MRT inf came to 5.61 h. The bioavailability in series [3] (po-10 mg/kg vs iv-5 mg/kg) was 17.4%. In addition, the change in vivo at 20 mg/kg in series [1] (setting [4]) lay in the range of 50 to 60%.
With `O=C(/C=C/c1cccc(OC(F)(F)F)c1)N1C(=O)OC[C@@H]1c1ccccc1` [Example 29, (S, E)-4-phenyl-3-(3-(3-(trifluoromethoxy)phenyl)acryloyl) oxazolidin-2-one], the change in vivo at 20 mg/kg in series [1] (setting [4]) is ~20%.
In the case of `O=C(/C=C/c1ccccc1C(F)(F)F)N1C(=O)OCC1c1ccccc1` (stereo not drawn) [Example 26, (E)-3-(3-(2-trifluoromethylphenyl)acryloyl)-4-phenyloxazolidin-2-one], the change in vivo at 20 mg/kg in series [1] (setting [4]) was ~20%.
In the case of `O=C(/C=C/c1ccccc1C(F)(F)F)N1C(=O)OC[C@H]1c1ccccc1` [Example 28, (R, E)-3-(3-(2-trifluoromethylphenyl)acryloyl)-4-phenyloxazolidin-2-one], the change in vivo at 20 mg/kg in series [1] (setting [4]) was ~20%.
For `O=C(/C=C/c1ccccc1C(F)(F)F)N1C(=O)OCC1Cc1ccccc1` (stereo not drawn) [Example 57, (E)-4-benzyl-3-(3-(2-trifluoromethylphenyl)acryloyl)oxazolidin-2-one], the change in vivo at 20 mg/kg in series [1] (setting [4]) was ~30%.
The same measure, in the same setting: the same measure for `O=C(/C=C/c1ccc(F)cc1C(F)(F)F)N1C(=O)OC[C@@H]1c1ccccc1` [Example 43, (S, E)-3-(3-(4-fluoro-2-(trifluoromethyl)phenyl)acryloyl)-4-phenyloxazolidin-2-one]: ~20%.
With `O=C(/C=C/c1ccc(C(F)(F)F)cc1)N1CCOC1=O` [Example 9], the “increase of cerebral blood flow in mice” value in series [1] (dose of 5 mg/kg) was “about 10%”.
Regarding `O=C(/C=C/c1ccccc1OC(F)(F)F)N1C(=O)OC[C@@H]1c1ccccc1` [Example 30, (S, E)-4-phenyl-3-(3-(2-(trifluoromethoxy)phenyl)acryloyl) oxazolidin-2-one], the change in vivo at 20 mg/kg in series [1] (setting [4]) was ~10%.
Take `O=C(/C=C/c1cccc(-c2ccccc2)c1)N1C(=O)OC[C@@H]1c1ccccc1` [Example 35, (S, E)-3-(3-([1,1′-biphenyl]-3-yl)acryloyl)-4-phenyloxazolidin-2-one]: the change in vivo at 20 mg/kg in series [1] (setting [4]) is ~20%.
For `[2H]C1([2H])OC(=O)N(C(=O)/C=C/c2ccccc2C(F)(F)F)C1Cc1ccccc1` (stereo not drawn) [Example 104, (E)-4-benzyl-3-(3-(2-trifluoromethylphenyl)acryloyl)oxazolidin-2-one-5,5-d2], in series [1] (setting [4]), the change in vivo at 20 mg/kg was ~40%.
